ChEMBL document CHEMBL3507680, “University of Dundee, Gates Library screen for HepG2 cell viability”

experiment: Human HepG2 cell viability assay in 384 well format; format: toxicity, cell-based; parameters: dose 125 nL, time 70.5 hour; concentration not given beside the values; conditions: HepG2 cells, read-out: Inhibition

Point of comparison: CCOc1ccnc(N2CCN(C(=O)c3cn[nH]c3CC)CC2)n1, cytotoxicity at 70.5 h -3.19%. Against it:
- Cc1cc(C(=O)N2CCC3(CC2)COCCN(c2cccnc2)C3)[nH]n1 — lower, -3.67%
- O=C(CC1CC1)N1C[C@@H]2CCN(c3cnccn3)C[C@@H]2C1 — higher, 4.03%
- COc1ccc2c(c1)C(=O)NC1(CC2)CCN(Cc2ccc(F)cc2)C1 (centres undefined) — higher, 5.75%
- c1ccc2c(c1)CC(N1CCCC(NCc3ccc4nonc4c3)C1)C2 (centres undefined) — lower, -17.7%
- CC(C)N1CC2(CCCN(c3ncc(Cl)cc3F)C2)CCC1=O (centres undefined) — lower, -4.82%
- CN1C[C@@H](C(=O)NC(C)(C)C)[C@@]2(COc3ccc(F)cc3C2=O)C1 — higher, -1.75%
- Cc1noc(C)c1CN1CCC2(CC1)CC(Oc1cccnc1)CO2 (centres undefined) — higher, 1.43%
- Clc1ccc(-c2nnc(CNCCn3cccn3)o2)c(Cl)c1 — lower, -6.39%
- CC(Cc1ccco1)NC(=O)Nc1ccc(N(C)C)nc1 (centres undefined) — lower, -7.91%
- Cc1ccc(-n2cc(CN3CCOCC(CN(C)C)C3)cn2)cc1C (centres undefined) — higher, 37.2%
- COCc1ccccc1C(=O)NS(=O)(=O)CCCC#N — higher, -3.12%
- CCOCC1CC2(CCN(C(=O)c3ccccn3)CC2)CO1 (centres undefined) — lower, -6.81%
- CNC(=O)c1ccc(CN2CCC(N(C)Cc3noc(C)n3)C2)cc1 (centres undefined) — higher, -0.459%
- N#Cc1c(F)cccc1N1CCC(C(=O)Nc2nccs2)CC1 — lower, -17.6%
- CC(=O)N1CCC2(CCN(C(=O)c3ccc(Cl)c(C(F)(F)F)c3)C2)C1 (centres undefined) — lower, -11%
- CC(NC(=O)Nc1ccc(OC2CCCC2)cc1)c1nc[nH]n1 (centres undefined) — higher, 12.8%
- COCc1cccc(NS(=O)(=O)c2cc(C(=O)O)cs2)c1 — lower, -12.7%
- CN(Cc1nnc(C2CC2)n1C)C1CCN(CCc2ccncc2)C1 (centres undefined) — lower, -6%
- Cc1cccc(C(=O)N2CCCN(CCCSCC#N)CC2)c1 — lower, -10.7%
- COc1ccc(NC2CCN(C3CC3)C2=O)cn1 (centres undefined) — higher, 5.36%
- C[C@@H]1CN(Cc2nc(C(N)=O)no2)CC[C@@]1(O)C1CCOCC1 — lower, -8.91%
- CC(NCc1ccccn1)c1cc2c(cc1Br)OCCO2 (centres undefined) — lower, -4.31%
- OCC1(O)CCCN(Cc2noc(-c3ccccc3)n2)CC1 (centres undefined) — higher, 26.3%
- Cc1ccc(OCC2CCCN(C(=O)CCn3ccccc3=O)C2)cc1 (centres undefined) — higher, 0.753%
- CCc1nc(C2CCCN2CC(=O)N2CCCc3ccccc32)no1 (centres undefined) — higher, 22%
- CCn1cc(NC(=O)CN2C(=O)CC(C)(C)c3ccccc32)cn1 — lower, -4.43%
- CC(C)(C)NC(=O)CNC(=O)c1cccnc1Oc1cccnc1 — lower, -6.52%
- COCCN1CCC(NC(=O)Nc2cccc(F)c2)C1 (centres undefined) — higher, -0.696%
- CSc1ncccc1C(=O)N(C)C(C)Cc1ccccn1 (centres undefined) — lower, -18.1%
- N#CC1(NC(=O)c2nccc3ccccc23)CCC2(CC1)OCCO2 — lower, -25.4%
- CCOCCn1c(=O)[nH]c2cc(C(=O)N(C)CCc3cn[nH]c3)ccc21 — higher, 18.1%
- CCc1noc(C)c1C(=O)NCC(c1ccc(C)cc1)N(C)C (centres undefined) — lower, -3.99%
- COc1ccc(OC)c(-c2nc(CN(C)Cc3nonc3C)c(C)o2)c1 — higher, 26.4%
- COCC(=O)N1CCc2nc(NC(C)C)nc(NC(C)C)c2CC1 — higher, -0.713%
- CCN1C(=O)CC[C@@H]2[C@H]1CCN2S(=O)(=O)Cc1ccc(C)cc1 — higher, -0.603%
- C=Cc1cccc(CN2CCCn3nc(CNS(C)(=O)=O)cc3C2)c1 — lower, -3.84%
- Cc1cnn(CC2CN(c3ncnc4ccsc34)CCO2)c1 (centres undefined) — higher, 16%
- COCCN1C[C@@H]2CCCO[C@@H]2[C@H](NC(=O)c2cnccn2)C1 — higher, -0.647%
- CC[C@H](Nc1nc(C(C)C)nc2c1cnn2C)c1ccccc1 — lower, -8.04%
- Cc1nc(CN(C)C2CCN(Cc3sc(C)nc3C)C2)no1 (centres undefined) — lower, -7.02%
- CCN1CC2(CCN(CCOCCO)CC2)CC(c2ccccc2)C1=O (centres undefined) — higher, 3.81%
- Cc1cc(CNCC2CCCN(C(=O)OC(C)(C)C)C2)no1 (centres undefined) — lower, -6.15%
- CCn1ccnc1CN1CCC(CCC(=O)Nc2ccccc2Cl)CC1 — higher, 11.7%
- Cc1ncoc1C(=O)N1CCn2c(COc3cccnc3)cnc2C1C (centres undefined) — higher, 17.8%
- CS(=O)(=O)N1CC[C@H]2OCC[C@@]2(C(=O)NCc2ccccn2)C1 — higher, -2.32%
- CCc1cc(=O)n(CC(=O)N2CCCC2)c(-c2ccc(F)cc2)n1 — lower, -5.4%
- CCN(Cc1ccncc1)C(=O)c1cn(CCCc2ccccc2)nn1 — lower, -12.5%
- CC(=O)NCCNC(=O)c1cnc2c(c1)nc(-c1ccccc1Cl)n2C — lower, -6%
- CNC(=O)[C@H]1C[C@H]2OCC[C@H]2N(CC2CC2)C1 — higher, -3.14%
- CCNc1cc2c(nn1)CCN(C(=O)c1ccc(NC3CC3)nc1)C2 — higher, 1.85%
- Cc1ccc(N2CCC3(CCC(=O)N3)CC2)nn1 — lower, -10%
- N#CCCN(CCN1CCOCC1)Cc1ccc(F)c(Br)c1 — higher, -3.12%
- CN(CCO)C[C@@H]1CN(C2CCN(c3ccccc3Cl)CC2)C[C@@H]1CO — lower, -10.1%
- C=C(C)COc1ccccc1C(=O)NCCCc1nnn[nH]1 — lower, -13%
- Cc1nc(C2(O)CCCNCC2)sc1CCOc1ccccc1 (centres undefined) — lower, -9.24%
- COc1cccc(NC(=O)NCC(C)(O)CCSC)c1OC (centres undefined) — lower, -8.28%
- CNc1ccc(CC2CCCN(Cc3c[nH]cn3)C2)nn1 (centres undefined) — lower, -3.24%
- Cc1nnc(C(C)Nc2ccc(OCCc3ccccc3)nc2)o1 (centres undefined) — higher, 0.291%
- COc1nc2c(cc1C(=O)NCCc1nc(C)c(C(=O)O)s1)CCC2 — higher, 10%
- CN1C(=O)C(C)(C)COc2cc(NS(=O)(=O)c3ccccc3F)ccc21 — higher, 16.6%
- CCc1n[nH]c(C2CN(C(=O)c3cc(C4CC4)on3)CCO2)n1 (centres undefined) — lower, -5.69%
- COc1ncccc1C(=O)N1CCC(c2nc3c(C)cccc3[nH]2)CC1 — lower, -6.55%
- CC(C)Oc1cc(N2C[C@@H](C)O[C@@H](C)C2)nc(N)n1 — lower, -14.6%
- CC(C)(C)CC(=O)Nc1cnn(-c2ccccc2S(C)(=O)=O)c1 — lower, -5.49%
- CCC(NC(=O)CCCNC(=O)OC)c1cc(F)ccc1F (centres undefined) — higher, -3.13%
- O=C(C1CC=CC1)N1C[C@@H]2[C@@H](C1)OCC(=O)N2Cc1cccnc1 — higher, 0.567%
- CN(C)C(=O)CN1C[C@@H]2CC[C@H](C1)N(Cc1cc(F)ccc1F)C2 — higher, 7.45%
- O=C(Cc1ccccc1)N1CCOC(c2nc(-c3ncccn3)no2)C1 (centres undefined) — lower, -4.21%
- O=C(c1ccsc1)N1CCO[C@@H]2CN(Cc3cccs3)C[C@@H]2C1 — lower, -6.05%
- Cc1ccc(CNC(=O)c2nc3c(n2C)CCN(c2ncccn2)C3)o1 — higher, -1.28%
- Cn1cnc2c1CCN(CCS(=O)(=O)c1ccc(Cl)cc1)C2 — lower, -5.54%
- Cn1cc(Br)cc(NC(=O)CC(C)(C)C)c1=O — lower, -13.2%
- COCCN1CCC(NCc2ccc(Cl)cc2)C1 (centres undefined) — lower, -11.1%
- O=C1CCC2(CCOC2)CN1CCCOc1cccnc1 (centres undefined) — higher, 0.321%
- CCCC1C=CCN1C(=O)c1cc(COc2ccc3c(c2)OCO3)[nH]n1 (centres undefined) — lower, -11%
- CCn1c(C)cc(C(=O)N2CCC(Nc3cccnn3)CC2)c1C — lower, -108%
- CO[C@@H]1CC[C@H]2[C@H]1OCCN2C(=O)c1nn(C)c2ccccc12 — higher, 20.6%
- Cc1nc(CNCC(O)COc2ccc3c(c2)OCO3)cs1 (centres undefined) — higher, 1.9%
